Measurements taken from ChEMBL document CHEMBL1152474, “Synthesis and investigation of anti-inflammatory activity and gastric ulcerogenicity of novel nitric oxide-donating pyrazoline derivatives” (Eur J Med Chem, 2009).

Key:
Rattus norvegicus [1] = assay: Antiinflammatory activity in albino rat assessed as inhibition of carrageenan-induced paw edema at 100 mg/kg, po treated for 30 mins measured after 3 hrs of carrageenan challenge; format: functional
Rattus norvegicus [2] = assay: Reduction in 5-(2-furyl)-4,5-dihydro-3-(3,4-dimethoxyphenyl)-1H-pyrazole-induced ulcer in albino rat at 100 mg/kg, po after 5 hrs; format: functional; set-up: scale not given: the % may be the effect or the level left
Rattus norvegicus [3] = assay: Antiinflammatory activity in albino rat assessed as inhibition of carrageenan-induced paw edema at 100 mg/kg, po treated for 30 mins measured after 2 hrs of carrageenan challenge; format: functional
[4] = Induction of NO release per mol of compound in phosphate buffer at pH 7.4 at 100 uM after 4 hrs by Griess assay; format: physicochemical; details: pH 7.4, 4 h
[5] = Induction of NO release per mol of compound in phosphate buffer at pH 7.4 at 100 uM after 6 hrs by Griess assay; format: physicochemical; details: pH 7.4, 6 h
[6] = Induction of NO release per mol of compound in phosphate buffer at pH 7.4 at 100 uM after 5 hrs by Griess assay; format: physicochemical; details: pH 7.4, 5 h
Rattus norvegicus [7] = assay: Antiinflammatory activity in albino rat assessed as inhibition of carrageenan-induced paw edema at 100 mg/kg, po treated for 30 mins measured after 1 hr of carrageenan challenge; format: functional
Rattus norvegicus [8] = assay: Gastrotoxicity in albino rat assessed as ulcer index at 100 mg/kg, po after 5 hrs; format: toxicity, organism-based; set-up: dose 100 mg/kg, route oral; details: in vivo
Rattus norvegicus [9] = assay: Reduction in 1-(2-Bromoacetyl)-5-(2-furyl)-4,5-dihydro-3-(3,4-dimethoxyphenyl)-1H-pyrazole-induced ulcer in albino rat at 100 mg/kg, po after 5 hrs; format: functional; set-up: scale not given: the % may be the effect or the level left
[10] = Induction of NO release per mol of compound in phosphate buffer at pH 7.4 at 100 uM after 3 hrs by Griess assay; format: physicochemical; details: pH 7.4, 3 h
[11] = Induction of NO release per mol of compound in phosphate buffer at pH 7.4 at 100 uM after 2 hrs by Griess assay; format: physicochemical; details: pH 7.4, 2 h
[12] = Induction of NO release per mol of compound in phosphate buffer at pH 7.4 at 100 uM after 1 hr by Griess assay; format: physicochemical; details: pH 7.4, 1 h
[13] = Induction of NO release in phosphate buffer at pH 1 at 100 uM by Griess assay; format: physicochemical; details: pH 1, 100 µM
Rattus norvegicus [14] = assay: Reduction in 1-(2-Bromoacetyl)-4,5-dihydro-5-(2,4-dimethoxyphenyl)-3-(3,4-dimethoxyphenyl)-1H-pyrazole-induced ulcer in albino rat at 100 mg/kg, po after 5 hrs; format: functional; set-up: scale not given: the % may be the effect or the level left
Rattus norvegicus [15] = assay: Reduction in 4,5-Dihydro-5-(2,4-dimethoxyphenyl)-3-(3,4-dimethoxyphenyl)-1H-pyrazole-induced ulcer in albino rat at 100 mg/kg, po after 5 hrs; format: functional; set-up: scale not given: the % may be the effect or the level left
Rattus norvegicus [16] = assay: Reduction in 1-(2-Bromoacetyl)-5-(2,6-dichlorophenyl)-4,5-dihydro-3-(4-methoxyphenyl)-1H-pyrazole-induced ulcer in albino rat at 100 mg/kg, po after 5 hrs; format: functional; set-up: scale not given: the % may be the effect or the level left
Rattus norvegicus [17] = assay: Reduction in 5-(2,6-Dichlorophenyl)-4,5-dihydro-3-(4-methoxyphenyl)-1H-pyrazole-induced ulcer in albino rat at 100 mg/kg, po after 5 hrs; format: functional; set-up: scale not given: the % may be the effect or the level left
Rattus norvegicus [18] = assay: Reduction in 1-(2-Bromopropionyl)-4,5-dihydro-5-(2,4-dimethoxyphenyl)-3-(3,4-dimethoxyphenyl)-1H-pyrazole-induced ulcer in albino rat at 100 mg/kg, po after 5 hrs; format: functional; set-up: scale not given: the % may be the effect or the level left
Rattus norvegicus [19] = assay: Reduction in 1-(2-Bromopropionyl)-5-(2-furyl)-4,5-dihydro-3-(3,4-dimethoxyphenyl)-1H-pyrazole-induced ulcer in albino rat at 100 mg/kg, po after 5 hrs; format: functional; set-up: scale not given: the % may be the effect or the level left

SMILES	inhibition in vivo at 100 mg/kg (Rattus norvegicus [1])	Activity (Rattus norvegicus [2])	inhibition in vivo at 100 mg/kg (Rattus norvegicus [3])	NO release [4]	NO release [5]	NO release [6]	inhibition in vivo at 100 mg/kg (Rattus norvegicus [7])	UI (Rattus norvegicus [8])	Activity (Rattus norvegicus [9])	NO release [10]	NO release [11]	NO release [12]	Activity [13]	Activity (Rattus norvegicus [14])	Activity (Rattus norvegicus [15])	Activity (Rattus norvegicus [16])	Activity (Rattus norvegicus [17])	Activity (Rattus norvegicus [18])	Activity (Rattus norvegicus [19])
COc1ccc(C2=NN(C(=O)CO[N+](=O)[O-])C(c3ccco3)C2)cc1OC (stereo not drawn)	43%	92%	37%	0.483 mol/mol	0.535 mol/mol	0.614 mol/mol	32%	2	84%	0.281 mol/mol	0.211 mol/mol	0.126 mol/mol	Not Active						
COc1ccc(C2=NN(C(=O)CBr)C(c3c(Cl)cccc3Cl)C2)cc1OC (stereo not drawn)	69%		58%				48%	3											
COc1ccc(C2=NN(C(=O)CBr)C(c3c(Cl)cccc3Cl)C2)cc1 (stereo not drawn)	7%		49%				43%	6											
COc1ccc(C2CC(c3ccc(OC)c(OC)c3)=NN2C(=O)CNc2ccc(/C(C)=N/O)cc2)c(OC)c1 (stereo not drawn)	46%		44%	0.194 mol/mol	0.268 mol/mol	0.302 mol/mol	27%	2		0.148 mol/mol	0.114 mol/mol	0.137 mol/mol	Not Active	93%	71%				
COc1ccc(C2=NN(C(=O)CNc3ccc(/C(C)=N/O)cc3)C(c3ccco3)C2)cc1OC (stereo not drawn)	46%	96%	46%	0.167 mol/mol	0.267 mol/mol	0.277 mol/mol	38%	0	92%	0.138 mol/mol	0.128 mol/mol	0.118 mol/mol	Not Active						
COc1ccc(C2CC(c3ccc(OC)c(OC)c3)=NN2C(=O)CBr)c(OC)c1 (stereo not drawn)	71%		67%				53%	30											
COc1ccc(C2CC(c3ccc(OC)c(OC)c3)=NN2)c(OC)c1 (stereo not drawn)	42%		39%				38%	7											
COc1ccc(C2CC(c3ccc(OC)c(OC)c3)=NN2C(=O)CO[N+](=O)[O-])c(OC)c1 (stereo not drawn)	58%		48%	0.523 mol/mol	0.588 mol/mol	0.78 mol/mol	38%	5		0.433 mol/mol	0.391 mol/mol	0.329 mol/mol	Not Active	83%	28%				
COc1ccc(C2CC(c3ccc(OC)c(OC)c3)=NN2C(=O)C(C)Br)c(OC)c1 (stereo not drawn)	69%		63%				58%	23											
COc1ccc(C2=NN(C(=O)CO[N+](=O)[O-])C(c3c(Cl)cccc3Cl)C2)cc1 (stereo not drawn)	52%		42%	0.451 mol/mol	0.593 mol/mol	0.656 mol/mol	34%	0		0.356 mol/mol	0.295 mol/mol	0.195 mol/mol	Not Active			93%	96%		
COc1ccc(C2=NN(C(=O)C(C)Br)C(c3c(Cl)cccc3Cl)C2)cc1OC (stereo not drawn)	60%		56%				51%	10											
COc1ccc(C2=NN(C(=O)CBr)C(c3ccco3)C2)cc1OC (stereo not drawn)	51%		46%				38%	13					Not Active						
COc1ccc2c(c1)c(CC(=O)O)c(C)n2C(=O)c1ccc(Cl)cc1 [INDOMETHACIN]	82%		67%				58%	43.5											
COc1ccc(C2=NNC(c3c(Cl)cccc3Cl)C2)cc1 (stereo not drawn)	60%		58%				54%	31											
COc1ccc(C2=NNC(c3c(Cl)cccc3Cl)C2)cc1OC (stereo not drawn)	58%		49%				26%	3											
COc1ccc(C2=NN(C(=O)CO[N+](=O)[O-])C(c3c(Cl)cccc3Cl)C2)cc1OC (stereo not drawn)	58%		49%	0.555 mol/mol	0.625 mol/mol	0.738 mol/mol	40%	4		0.516 mol/mol	0.395 mol/mol	0.147 mol/mol	Not Active						
COc1ccc(C2CC(c3ccc(OC)c(OC)c3)=NN2C(=O)C(C)O[N+](=O)[O-])c(OC)c1 (stereo not drawn)	56%		61%	0.128 mol/mol	0.09 mol/mol	0.065 mol/mol	44%	3		0.438 mol/mol	0.16 mol/mol	0.098 mol/mol	Not Active		57%			86%	
COc1ccc(C2=NN(C(=O)C(C)O[N+](=O)[O-])C(c3c(Cl)cccc3Cl)C2)cc1OC (stereo not drawn)	55%		53%	0.255 mol/mol	0.114 mol/mol	0.145 mol/mol	47%	7		0.501 mol/mol	0.19 mol/mol	0.123 mol/mol	Not Active						
COc1ccc(C2=NNC(c3ccco3)C2)cc1OC (stereo not drawn)	60%		53%				45%	26.5					Not Active						
COc1ccc(C2=NN(C(=O)C(C)O[N+](=O)[O-])C(c3ccco3)C2)cc1OC (stereo not drawn)	42%	73%	39%	0.2 mol/mol	0.087 mol/mol	0.125 mol/mol	35%	7		0.398 mol/mol	0.19 mol/mol	0.078 mol/mol	Not Active						30%
COc1ccc(C2=NN(C(=O)C(C)Br)C(c3ccco3)C2)cc1OC (stereo not drawn)	42%		36%				22%	10											
